Where two headings read alike, the source gives them in different places. Marks after values point to notes of the source that are not given here.

For data set [1] the following is noted: molar aqueous solubility, log value; cited from earlier work.
Data set [2] is described as follows: n-octanol/water partition coefficient LogPoct calculated from solubility data. Conditions: calculated as logPoct = (0.99 - logSw)/1.34. The source says: where logSw is the molar solubility and logPoct is the water-oil partition coefficient. Using this equation, values for logPoct can be calculated from solubility data.
For data set [3] the following is noted: starred values; log P estimated using SRC program.

With `CCC1(C)C(=O)NC(=O)NC1=O` [5-Me-5-ethylbarbituric acid], the LogSw in data set [1] is recorded as −1.23 moles/L. Besides, the LogPoct in data set [2] is 1.66.

Turning to `CC1(c2ccccc2)C(=O)NC(=O)NC1=O` [5-Me-5-phenylbarbituric acid], the LogSw in data set [1] is −2.38 moles/L. For the same molecule, in data set [2], the LogPoct is 2.51.

Turning to `S=c1cc(-c2ccccc2)ss1` [5-phenyldithiolethione], in data set [1], the LogSw is −5.64 moles/L. Further, in data set [2], the LogPoct was 4.95.

As for `CC(C)CN(C[C@@H](O)[C@H](Cc1ccccc1)NC(=O)O[C@H]1CCOC1)S(=O)(=O)c1ccc(N)cc1` [Amprenavir], in data set [1], the LogSw is −4.00 moles/L. Also, the LogPoct in data set [2] was 3.72.

For the molecule `C=C(C)C1CC=C(C)C(=O)C1` (centres unmarked) [Carvone], the LogSw in data set [1] is −1.67 moles/L. The LogPoct in data set [2] is 1.99.

Turning to `O=C1Nc2ccc(Cl)cc2[C@@](C#CC2CC2)(C(F)(F)F)O1` [Efavirenz], the LogSw in data set [1] is reported as −4.57 moles/L. The LogPoct in data set [2] is listed as 4.15.

Consider `C=CC(=C)CCC=C(C)C` [Myrcene], for which the LogSw in data set [1] is on record as −3.58 moles/L. Also, the LogPoct in data set [2] is given as 3.41.

Turning to `CC(=O)Nc1nc2c(ncn2COCCOC(C)=O)c(=O)[nH]1` [N2,O-diacetylacyclovir], in data set [1], the LogSw is recorded as −2.70 moles/L. In addition, the LogPoct in data set [2] was 2.75.

As to `CCC[C@@]1(CCc2ccccc2)CC(O)=C([C@H](CC)c2cccc(NS(=O)(=O)c3ccc(C(F)(F)F)cn3)c2)C(=O)O1` [N-(3{(1R)-1-[(6R)-4-hydroxy-2-oxo-6-phenethyl-6-propyl-5,6-dihydro-2H-pyran-3-yl]propyl}phenyl)-5-(trifluoromethyl)-2-pyridinesulfonamide], the LogSw in data set [3] is listed as −8.00* moles/L.

Regarding `CC(=O)OCCOCn1cnc2c(=O)[nH]c(N)nc21` [O-acetylacyclovir], in data set [1], the LogSw is −0.86 moles/L. Also, the LogPoct in data set [2] was 1.38.

With `CCC(=O)NS(=O)(=O)c1ccc(-c2c(-c3ccccc3)noc2C)cc1` [Parecoxib], the LogSw in data set [3] is −3.16* moles/L.

Take `CC(C)(C)NC(=O)[C@@H]1C[C@@H]2CCCC[C@@H]2CN1C[C@@H](O)[C@H](Cc1ccccc1)NC(=O)[C@H](CC(N)=O)NC(=O)c1ccc2ccccc2n1` [Saquinavir]: the LogSw in data set [1] was −4.33 moles/L. In addition, in data set [2], the LogPoct is given as 3.97.

As for `Cc1onc(-c2ccccc2)c1-c1ccc(S(N)(=O)=O)cc1` [Valdecoxib], the LogSw in data set [3] is on record as −2.59* moles/L.

Consider `C=C(C)C1CC=C(C)[C@@H](O)C1` (some centres unmarked) [carveol], for which, in data set [1], the LogSw is −1.88 moles/L. Besides, the LogPoct in data set [2] is recorded as 2.14.

`CC(C)Nc1cccnc1N1CCN(C(=O)c2cc3cc(NS(C)(=O)=O)ccc3[nH]2)CC1` [delavirdine]: the LogSw in data set [1] is recorded as −4.76 moles/L. Also, in data set [2], the LogPoct is given as 4.29.

Consider `CC12CCC(C1)C(C)(C)C2O` (centres unmarked) [fenchyl_alcohol], for which the LogSw in data set [1] is −2.27 moles/L. The LogPoct in data set [2] is 2.43.

For the molecule `C=CC(C)(O)CCC=C(C)C` (centres unmarked) [linalool], the LogSw in data set [1] is given as −2.00 moles/L. In data set [2], the LogPoct was 2.23.

As for `CC1(C)C2CC3OC3(C)C1C2` (centres unmarked) [pinene_oxide], the LogSw in data set [1] is listed as −2.59 moles/L. The LogPoct in data set [2] is 2.67.

dimethylthiolethione: the LogSw in data set [1] is listed as −3.42 moles/L. The LogPoct in data set [2] is given as 3.29.

The record behind these values is patent publication US20040175401A1, “Enhanced parmacokinetic profile of hydrophobic substances” (priority 2001, published 2004).
